Values after ≈ are worked out from the molar mass of the structure shown. Counter-ions that a name gives are not always drawn. Like-named read-outs stand apart in the source and are kept apart here.
System: WT Mtb Erdman strain
Experiment: Microplate Alamar Blue Assay (MABA)
Assay type: cell-based
Conditions: Mycobacterium tuberculosis; for MIC50: read-out: MABA MIC50; for MIC90: read-out: MABA MIC90
[1] = concentration that inhibits mycobacterial survival by 50%, Middlebrook 7H9 media, 7 days at 37° C., resazurin 24 hours
[2] = concentration that inhibits mycobacterial survival by 90%, Middlebrook 7H9 media, 7 days at 37° C., resazurin 24 hours

CCc1nc(NCCCc2ccccc2)c2cc(C)sc2n1 [Example 1023, 2-Ethyl-6-methyl-N-(3-phenylpropyl)thieno[2,3-d]pyrimidin-4-amine]
MIC50 [1]: 0.0266 µM (≈ 0.00828 µg/mL)
MIC90 [2]: 0.108 µM (≈ 0.0336 µg/mL)

CCc1nc(NCCc2ccccc2)c2cc(C)sc2n1 [Example 1306, 2-Ethyl-6-methyl-N-phenethylthieno[2,3-d]pyrimidin-4-amine]
MIC50 [1]: 0.125 µM (≈ 0.0372 µg/mL)
MIC90 [2]: 0.183 µM (≈ 0.0544 µg/mL)

Cc1cc2c(NCCCc3ccccc3)nc(C(F)(F)C(F)(F)F)nc2s1 [Example 1538, 6-Methyl-2-(1,1,2,2,2-pentafluoroethyl)-N-(3-phenylpropyl)thieno[2,3-d]pyrimidin-4-amine]
MIC50 [1]: 0.597 µM (≈ 0.24 µg/mL)
MIC90 [2]: 1.1 µM (≈ 0.442 µg/mL)

Cc1nc(NCCCc2ccccc2)c2oc3ccccc3c2n1 [Example 1299, 2-Methyl-N-(3-phenylpropyl)benzofuro[3,2-d]pyrimidin-4-amine]
MIC50 [1]: 0.128 µM (≈ 0.0406 µg/mL)
MIC90 [2]: 0.188 µM (≈ 0.0597 µg/mL)

FC(F)(F)CCCNc1nc(C(F)(F)F)nc2sccc12 [Example 1548, N-(4,4,4-Trifluorobutyl)-2-(trifluoromethyl)thieno[2,3-d]pyrimidin-4-amine]
MIC50 [1]: 12.3 µM (≈ 4.05 µg/mL)
MIC90 [2]: 13.7 µM (≈ 4.51 µg/mL)

Cc1nc(NCCc2ccccc2)c2c(C)c(C)sc2n1 [Example 0798, 2,5,6-Trimethyl-N-(2-phenylethyl)thieno[2,3-d]pyrimidin-4-amine]
MIC50 [1]: 27.4 µM (≈ 8.15 µg/mL)
MIC90 [2]: 32.9 µM (≈ 9.79 µg/mL)

Cc1nc(NC2CC2)c2oc3ccccc3c2n1 [Example 1151, N-Cyclopropyl-2-methyl-benzofuro[3,2-d]pyrimidin-4-amine]
MIC50 [1]: 11.1 µM (≈ 2.66 µg/mL)
MIC90 [2]: 33.9 µM (≈ 8.11 µg/mL)

CCCCNc1nc(C)nc2sc(C)c(C)c12 [Example 0796, N-butyl-2,5,6-trimethylthieno[2,3-d]pyrimidin-4-amine trifluoroacetate]
MIC50: > 50 µM
MIC90: > 50 µM

CCc1nc(NCCCN(C)C)c2cc(C)sc2n1 [Example 0935, [3-({2-ethyl-6-methylthieno[2,3-d]pyrimidin-4-yl}amino)propyl]dimethylamine]
MIC50 [1]: > 50 µM
MIC90 [2]: > 50 µM

Cc1cc2c(NC3CC3)nc(C(F)(F)F)nc2s1 [Example 1540, N-Cyclopropyl-6-methyl-2-(trifluoromethyl)thieno[2,3-d]pyrimidin-4-amine]
MIC50 [1]: 1.81 µM (≈ 0.495 µg/mL)
MIC90 [2]: 4.79 µM (≈ 1.31 µg/mL)

FC(F)(F)CCCNc1nc(C(F)(F)C(F)(F)F)nc2sccc12 [Example 1549, 2-(Perfluoroethyl)-N-(4,4,4-trifluorobutyl)thieno[2,3-d]pyrimidin-4-amine]
MIC50 [1]: 22.3 µM (≈ 8.46 µg/mL)
MIC90 [2]: 24.2 µM (≈ 9.18 µg/mL)

Cc1cc2c(NC3CC3)nc(C(F)(F)C(F)(F)F)nc2s1 [Example 1542, N-Cyclopropyl-6-methyl-2-(perfluoroethyl)thieno[2,3-d]pyrimidin-4-amine]
MIC50 [1]: 5.28 µM (≈ 1.71 µg/mL)
MIC90 [2]: 10.1 µM (≈ 3.27 µg/mL)

CCc1nc(NC2CC2)c2cc(Cl)sc2n1 [Example 1181, 6-Chloro-N-cyclopropyl-2-ethyl-thieno[2,3-d]pyrimidin-4-amine]
MIC50 [1]: 3.06 µM (≈ 0.776 µg/mL)
MIC90 [2]: 7.64 µM (≈ 1.94 µg/mL)

Cc1cc2c(NCCCc3ccccc3)nc(C(F)(F)F)nc2s1 [Example 1536, 6-Methyl-N-(3-phenylpropyl)-2-(trifluoromethyl)thieno[2,3-d]pyrimidin-4-amine]
MIC50 [1]: 0.386 µM (≈ 0.136 µg/mL)
MIC90 [2]: 0.479 µM (≈ 0.168 µg/mL)

Cc1cc2c(NCCCC(F)(F)F)nc(C(F)(F)F)nc2s1 [Example 1551, 6-Methyl-N-(4,4,4-trifluorobutyl)-2-(trifluoromethyl)thieno[2,3-d]pyrimidin-4-amine]
MIC50 [1]: 0.846 µM (≈ 0.29 µg/mL)
MIC90 [2]: 3.88 µM (≈ 1.33 µg/mL)

CCc1nc(NC2CC2)c2oc3ccccc3c2n1 [Example 1142, N-cyclopropyl-2-ethyl-benzofuro[3,2-d]pyrimidin-4-amine]
MIC50 [1]: 8.37 µM (≈ 2.12 µg/mL)
MIC90 [2]: 24.8 µM (≈ 6.28 µg/mL)

CCCCNc1nc(C(F)(F)C(F)(F)F)nc2sc(C)cc12 [Example 1546, N-Butyl-6-methyl-2-(perfluoroethyl)thieno[2,3-d]pyrimidin-4-amine]
MIC50 [1]: 11.2 µM (≈ 3.8 µg/mL)
MIC90 [2]: 12.4 µM (≈ 4.21 µg/mL)

C=C(C)c1cc2c(NC3CC3)nc(CC)nc2s1 [Example 1154, N-Cyclopropyl-2-ethyl-6-(prop-1-en-2-yl)thieno[2,3-d]pyrimidin-4-amine]
MIC50 [1]: 45.9 µM (≈ 11.9 µg/mL)
MIC90 [2]: > 50 µM

CCc1nc(NC2CC2)c2cc(C3CC3)sc2n1 [Example 1161, N,6-Dicyclopropyl-2-ethyl-thieno[2,3-d]pyrimidin-4-amine]
MIC50 [1]: 31.3 µM (≈ 8.12 µg/mL)
MIC90 [2]: 36.3 µM (≈ 9.42 µg/mL)

CCc1nc(NCCCc2ccccc2)c2ccsc2n1 [Example 1305, 2-Ethyl-N-(3-phenylpropyl)thieno[2,3-d]pyrimidin-4-amine]
MIC50 [1]: 0.113 µM (≈ 0.0336 µg/mL)
MIC90 [2]: 0.145 µM (≈ 0.0431 µg/mL)

CCc1nc(NCCc2ccc(Cl)cc2Cl)c2cc(C)sc2n1 [Example 1307, N-[2-(2,4-Dichlorophenyl)ethyl]-2-ethyl-6-methylthieno[2,3-d]pyrimidin-4-amine]
MIC50 [1]: 0.526 µM (≈ 0.193 µg/mL)
MIC90 [2]: 1.18 µM (≈ 0.432 µg/mL)

Cc1cccc(-c2nc(NCCCC(F)(F)F)c3c(C)csc3n2)n1 [Example 1711, 5-methyl-2-(6-methylpyridin-2-yl)-N-(4,4,4-trifluorobutyl)thieno[2,3-d]pyrimidin-4-amine]
MIC50 [1]: 6.48 µM (≈ 2.37 µg/mL)
MIC90 [2]: 19.4 µM (≈ 7.11 µg/mL)

FC(F)(F)C(F)(F)c1nc(NCCCc2ccccc2)c2ccsc2n1 [Example 1539, 2-(1,1,2,2,2-Pentafluoroethyl)-N-(3-phenylpropyl)thieno[2,3-d]pyrimidin-4-amine]
MIC50 [1]: 4.9 µM (≈ 1.9 µg/mL)
MIC90 [2]: 7.36 µM (≈ 2.85 µg/mL)

CCc1nc(NC2CC2)c2cc(C(F)(F)F)sc2n1 [Example 1177, N-Cyclopropyl-2-ethyl-6-(trifluoromethyl)thieno[2,3-d]pyrimidin-4-amine]
MIC50 [1]: 30.8 µM (≈ 8.85 µg/mL)
MIC90 [2]: > 50 µM

Cc1cccc(-c2nc(NCCCc3ccccc3)c3c(C)csc3n2)n1 [Example 1709, 5-methyl-2-(6-methylpyridin-2-yl)-N-(3-phenylpropyl)thieno[2,3-d]pyrimidin-4-amine]
MIC50 [1]: 2.56 µM (≈ 0.959 µg/mL)
MIC90 [2]: 19.7 µM (≈ 7.38 µg/mL)

FC(F)(F)c1nc(NCCCc2ccccc2)c2ccsc2n1 [Example 1537, N-(Phenylpropyl)-2-(trifluoromethyl)thieno[2,3-d]pyrimidin-4-amine]
MIC50 [1]: 0.439 µM (≈ 0.148 µg/mL)
MIC90 [2]: 1.14 µM (≈ 0.385 µg/mL)

CCCCNc1nc(CC)nc2sc(C)cc12 [Example 0728, N-butyl-2-ethyl-6-methylthieno[2,3-d]pyrimidin-4-amine]
MIC50 [1]: 0.182 µM (≈ 0.0454 µg/mL)
MIC90 [2]: 0.524 µM (≈ 0.131 µg/mL)

CCCCNc1nc(C(F)(F)F)nc2sc(C)cc12 [Example 1544, N-Butyl-6-methyl-2-(trifluoromethyl)thieno[2,3-d]pyrimidin-4-amine]
MIC50 [1]: 1.14 µM (≈ 0.33 µg/mL)
MIC90 [2]: 3.69 µM (≈ 1.07 µg/mL)

Cc1nc(NCc2ccccc2)c2c(C)c(C)sc2n1 [Example 0795, N-Benzyl-2,5,6-trimethylthieno[2,3-d]pyrimidin-4-amine]
MIC50 [1]: 25.4 µM (≈ 7.2 µg/mL)
MIC90 [2]: 28.4 µM (≈ 8.05 µg/mL)

CCCCNc1nc(CC)nc2c1oc1ccccc12 [Example 1301, N-Butyl-2-ethylbenzofuro[3,2-d]pyrimidin-4-amine]
MIC50 [1]: 3.8 µM (≈ 1.02 µg/mL)
MIC90 [2]: 8.97 µM (≈ 2.42 µg/mL)

CCc1nc(NCc2ccccn2)c2cc(C)sc2n1 [Example 1308, 2-Ethyl-6-methyl-N-(2-pyridylmethyl)thieno[2,3-d]pyrimidin-4-amine]
MIC50 [1]: 21.6 µM (≈ 6.14 µg/mL)
MIC90 [2]: 31.6 µM (≈ 8.99 µg/mL)

CCc1nc(NCCCc2ccccc2)c2oc3ccccc3c2n1 [Example 1300, 2-Ethyl-N-(3-phenylpropyl)benzofuro[3,2-d]pyrimidin-4-amine]
MIC50 [1]: 0.164 µM (≈ 0.0544 µg/mL)
MIC90 [2]: 0.389 µM (≈ 0.129 µg/mL)

CCc1nc(NCc2ccc(Cl)cc2)c2cc(C)sc2n1 [Example 1302, N-(4-Chlorobenzyl)-2-ethyl-6-methylthieno[2,3-d]pyrimidin-4-amine]
MIC50 [1]: 2.63 µM (≈ 0.836 µg/mL)
MIC90 [2]: 5.54 µM (≈ 1.76 µg/mL)

Cc1cc2c(NC3CC3)nc(-c3ccccc3)nc2s1 [Example 1062, N-Cyclopropyl-6-methyl-2-phenyl-thieno[2,3-d]pyrimidin-4-amine]
MIC50 [1]: 2.88 µM (≈ 0.81 µg/mL)
MIC90 [2]: 6.01 µM (≈ 1.69 µg/mL)

Cc1nc(Nc2ccccc2)c2c(C)c(C)sc2n1 [Example 0797, 2,5,6-Trimethyl-N-phenylthieno[2,3-d]pyrimidin-4-amine]
MIC50 [1]: > 50 µM
MIC90 [2]: > 50 µM

CCc1nc(NCc2ccccc2)c2cc(C)sc2n1 [Example 1303, N-Benzyl-2-ethyl-6-methylthieno[2,3-d]pyrimidin-4-amine]
MIC50 [1]: 10.6 µM (≈ 3 µg/mL)
MIC90 [2]: 20.8 µM (≈ 5.89 µg/mL)

CCc1nc(NC(C(=O)O)C(C)C)c2cc(C)sc2n1 (stereo not shown) [Example 0851, 2-({2-ethyl-6-methylthieno[2,3-d]pyrimidin-4-yl}amino)-3-methylbutanoic acid]
MIC50 [1]: > 50 µM
MIC90 [2]: > 50 µM

CCc1nc(NC2CC2)c2cc(-c3ccccc3)sc2n1 [Example 1150, N-Cyclopropyl-2-ethyl-6-phenyl-thieno[2,3-d]pyrimidin-4-amine]
MIC50 [1]: 21.1 µM (≈ 6.23 µg/mL)
MIC90 [2]: 23.1 µM (≈ 6.82 µg/mL)

CCc1nc(Nc2ccccc2)c2cc(C)sc2n1 [Example 1304, 2-Ethyl-6-methyl-N-phenylthieno[2,3-d]pyrimidin-4-amine]
MIC50 [1]: 25.2 µM (≈ 6.79 µg/mL)
MIC90 [2]: 41.6 µM (≈ 11.2 µg/mL)

CCc1nc(NCCCC(F)(F)F)c2c(C)csc2n1 [Example 1700, 2-Ethyl-5-methyl-N-(4,4,4-trifluorobutyl)thieno[2,3-d]pyrimidin-4-amine]
MIC50 [1]: 26.8 µM (≈ 8.13 µg/mL)
MIC90 [2]: 30.7 µM (≈ 9.31 µg/mL)

CCCCNc1nc(CC)nc2sccc12 [Example 1176, N-butyl-2-ethyl-thieno[2,3-d]pyrimidin-4-amine]
MIC50 [1]: 3.8 µM (≈ 0.894 µg/mL)
MIC90 [2]: 14.4 µM (≈ 3.39 µg/mL)

CCCCNc1nc(C(F)(F)C(F)(F)F)nc2sccc12 [Example 1547, N-Butyl-2-(perfluoroethyl)thieno[2,3-d]pyrimidin-4-amine]
MIC50 [1]: 21.9 µM (≈ 7.12 µg/mL)
MIC90 [2]: 23.8 µM (≈ 7.74 µg/mL)

Cc1cc2c(NC3CC3)nc(Cc3ccc(F)cc3)nc2s1 [Example 1063, N-Cyclopropyl-2-[(4-fluorophenyl)methyl]-6-methyl-thieno[2,3-d]pyrimidin-4-amine]
MIC50 [1]: 21 µM (≈ 6.58 µg/mL)
MIC90 [2]: 41.7 µM (≈ 13.1 µg/mL)

CCc1nc(NC2CC2)c2cc(Br)sc2n1 [Example 1146, 6-Bromo-N-cyclopropyl-2-ethyl-thieno[2,3-d]pyrimidin-4-amine]
MIC50 [1]: 5.98 µM (≈ 1.78 µg/mL)
MIC90 [2]: 13.8 µM (≈ 4.12 µg/mL)
